# In patent publication US5705687A, “Neurotropic drug and method for preparation of same” (priority 1993, dated 1998):
# Values joined by “and” are separate entries in the source; they are usually repeats but may differ in a detail not shown here. Equal values may be shown once. Where a name gives a salt, the structure may show the parent alone.
# How the values were obtained:
# mice [1] = test: Histotoxic hypoxia (sodium nitroprussiate), lifespan; format: in vivo; conditions: for Lifespan, % effect: Na-nitro-prussiate alone = 100
# Procedure: (§1) The antihypoxic properties of the new compounds were tested in the models of hypoxic normobaric, hemic and histotoxic hypoxia. The hypoxic (hypercapnic) normobaric hypoxia was induced by placing the mice in hermetically sealed transparent boxes, subdivided into compartments, 80 cm^3 each. The animals were observed until all respiratory movements ceased. The hemic hypoxia was induced by the intraperitoneal administration of sodium nitrite in a dose of 400 mg/kg. The hystotoxic hypoxia was induced by the intraperitoneal administration of sodium nitroprussiate, in a dose of a 20 mg/kg dosage.
# mice [2] = test: Soporific action of barbital sodium; conditions: for Duration of sleep, % effect / Lateral position, % effect: barbital sodium alone = 100; for increase of sleep duration over control group: barbital sodium
# mice [3] = test: Conditioned reaction of passive avoidance (CPRA), amnesia by electric shock; format: in vivo; conditions: for Latent period after training: 24 h, amnesia control 31.1; for % effect (latent period): control + amnesia 91.2, w/o amnesia 288.1; for Δt, increase in latent period (t ± m, sec): amnesia control -3 ± 6
# Source text: The effect produced by the new substance on the processes of the central nervous system was examined on the model of one-time training of mice, of conditioned reaction of passive avoidance (CPRA), where the amnesic effect was produced by electric shock. During the tests, a two-section chamber was used to condition a certain reflex to the lit and darkened sections. First, for two minutes, the amount of time was registered, that a mouse spent in the lit section before entering the darkened section. Then, while in the darkened section, the animal would receive a single electric shock through the electrode floor (training). The training was immediately followed by an electric shock (50 Hz, 0.2 see). […] The substance was intraperitoneally administered 40 min. prior to the start of the training, the control group received a physiological solution. […] The anti-amnesic properties of the new compound are represented by an increase in the latent period before and after the training. (Δt)
# mice [4] = test: Orientation reflexes: test of ascent onto an inclined net; conditions: 0.1 to 150 mg/kg
# mice [5] = test: Spontaneous motor activity (SMA), 40-channel automatic motor meter; conditions: for Average SMA, M ± m: control 632.8 ± 35.2; for Relative change in activity (%): control = 100
# [6] = Solubility and hygroscopicity; format: physicochemical; conditions: powder
# mice [7] = test: Soporific action of hexobarbital; conditions: for Duration of sleep, % effect / Lateral position, % effect: hexobarbital alone = 100
# central nervous system = test: Neuropharmacological screening, overall findings; format: in vivo, mice; conditions: of all the salts derived
# Procedure: (§2) The myorelaxing effect of the new compounds was tested by the method of the "rotating rod"(Dunham N. W., Miga T. S., A note on a simplex apparatus for detecting neurological deficit in rat and mice, J. Am. Pharm. Ass., 1957, vol. 46, No. 3, pp. 208-209), which allows one to record any abnormalities in coordination and balance, as well as ataxia. The mice in the laboratory tests were placed on a horizontal rod, 2 cm in diameter, rotating at a speed of 5 revolutions per minute. The object was to register the number of mice which were able to maintain equilibrium on the rod for two minutes. Any presence of a myorelaxing component was considered to be a side effect of the substance being studied.
# mice [8] = test: Hemic hypoxia (sodium nitrite), lifespan; format: in vivo; conditions: for Lifespan, % effect: Na-nitrite alone = 100
# Procedure: as §1
# mice [9] = test: Acute toxicity in mice (Litchfield-Wilcockson); format: in vivo, white crossbred mice; conditions: i.p., single dose
# [10] = Acute toxicity in mice (Litchfield-Wilcockson); format: in vivo, white crossbred mice; conditions: mouse, in vivo
# mice [11] = test: Rotating rod: myorelaxation and movement coordination; format: in vivo, white crossbred mice; conditions: same dosage range (0.1 to 150 mg/kg), entire test period 3.5 hours
# Procedure: as §2
# [12] = 1 mg/kg i.p. + hexobarbital 100 mg/kg
smiles,measurement,setting,value
"CC(C)(CO)C(=O)C(=O)NCCCC(=O)O [KPA-Ca, calcium salt of ketopantoyl aminobutyrate]",Average lifespan,mice [1]; 10 mg/kg + Na-nitro-prussiate 20 mg/kg,798 ± 38 s
same,"Lifespan, % effect",mice [1]; 10 mg/kg,104.3%
same,Average lifespan,mice [1]; 25 mg/kg + Na-nitro-prussiate 20 mg/kg,855 ± 43.2 s
same,"Lifespan, % effect",mice [1]; 25 mg/kg,111.8%
same,increase in lifespan,mice [1]; 50 mg/kg,21.6%
same,Average lifespan,"mice [1]; 50 mg/kg + Na-nitro-prussiate 20 mg/kg, P < 0.05",930 ± 55.1 s
same,"Lifespan, % effect",mice [1]; 50 mg/kg,121.6%
same,increase in lifespan,mice [1]; 100 mg/kg,38.4%
same,Average lifespan,"mice [1]; 100 mg/kg + Na-nitro-prussiate 20 mg/kg, P < 0.01",1059 ± 64 s
same,"Lifespan, % effect",mice [1]; 100 mg/kg,138.4%
same,"Duration of sleep, % effect",mice [2]; 1 mg/kg,99.9%
same,"Lateral position, % effect",mice [2]; 1 mg/kg,69.6%
same,"Duration of sleep, % effect",mice [2]; 10 mg/kg,122.7%
same,"Lateral position, % effect",mice [2]; 10 mg/kg,61.4%
same,increase of sleep duration over control group,mice [2]; 25 mg/kg,126.5%
same,"Duration of sleep, % effect",mice [2]; 25 mg/kg,226.5%
same,"Lateral position, % effect",mice [2]; 25 mg/kg,67.3%
same,increase of sleep duration over control group,mice [2]; 50 mg/kg,95.1% and 95%
same,"Duration of sleep, % effect",mice [2]; 50 mg/kg,195.1%
same,"Lateral position, % effect",mice [2]; 50 mg/kg,68.7%
same,"Duration of sleep, % effect",mice [2]; 100 mg/kg,229.3%
same,"Lateral position, % effect",mice [2]; 100 mg/kg,66.7%
same,increase of sleep duration over control group,mice [2],129.3%
same,Latent period before training,"mice [3]; 10 mg/kg i.p., 40 min before training",27.1 s
same,Latent period after training,mice [3]; 10 mg/kg i.p.,90.3 s
same,% effect (latent period),mice [3]; 10 mg/kg i.p.,334.4%
same,"Δt, increase in latent period (t ± m, sec)","mice [3]; 10 mg/kg i.p., spread 12.6, P < 0.01",63.2 s
same,Latent period before training,mice [3]; 25 mg/kg i.p.,31.4 s
same,Latent period after training,mice [3]; 25 mg/kg i.p.,102.4 s
same,"Δt, increase in latent period (t ± m, sec)","mice [3]; 25 mg/kg i.p., P < 0.001",71 ± 9 s
same,% effect (latent period),mice [3]; 25 mg/kg i.p.,396.1%
same,Latent period before training,mice [3]; 50 mg/kg i.p.,30.6 s
same,Latent period after training,mice [3]; 50 mg/kg i.p.,77.8 s
same,% effect (latent period),mice [3]; 50 mg/kg i.p.,254.2%
same,"Δt, increase in latent period (t ± m, sec)","mice [3]; 50 mg/kg i.p., spread 13.3, P < 0.01",47.2 s
same,Latent period before training,mice [3]; 100 mg/kg i.p.,31.8 s
same,Latent period after training,mice [3]; 100 mg/kg i.p.,82.8 s
same,"Δt, increase in latent period (t ± m, sec)","mice [3]; 100 mg/kg i.p., P < 0.01",51 ± 14.1 s
same,% effect (latent period),mice [3]; 100 mg/kg i.p.,260.4%
same,anti-amnesic effect (in words),mice [3]; electric shock amnesia,counteracted the amnesic effect of the electric shock
same,effect on exploratory behaviour,mice [4],"does not disturb the ""exploratory"" behaviour"
same,decrease in number of runs in the motor meter (the same result),mice [5]; 10 mg/kg,30%
same,"dose for 30% decrease in runs, compared with pantogam dose",mice [5]; 10 mg/kg KPA-Ca vs 500 mg/kg pantogam,50 times less
same,"Average SMA, M ± m","mice [5]; 10 mg/kg i.p., 60 min before, number of runs",482.8 ± 101.8
same,Relative change in activity (%),mice [5]; 10 mg/kg i.p.,76.3%
same,"Average SMA, M ± m","mice [5]; 25 mg/kg i.p., P < 0.01",369.1 ± 68.7
same,Relative change in activity (%),mice [5]; 25 mg/kg i.p.,58.3%
same,"Average SMA, M ± m","mice [5]; 50 mg/kg i.p., P < 0.01",338.9 ± 74.5
same,Relative change in activity (%),mice [5]; 50 mg/kg i.p.,53.6%
same,"Average SMA, M ± m","mice [5]; 100 mg/kg i.p., P < 0.01",270.4 ± 75.3
same,Relative change in activity (%),mice [5]; 100 mg/kg i.p.,42.7%
same,decrease in motor activity (the same effect),mice [5]; 150 mg/kg,70%
same,"Average SMA, M ± m","mice [5]; 150 mg/kg i.p., P < 0.001",190.6 ± 28.2
same,Relative change in activity (%),mice [5]; 150 mg/kg i.p.,30.1%
same,dose of greatest effect on motor activity,"mice [5]; SMA test, mice",150 mg/kg
same,effect on motor activity (in words),"mice [5]; SMA test, mice",decreases the motor activity
same,hygroscopicity,[6],hygroscopic
same,Duration of sleep,mice [7]; [12],44.6 ± 5.2 min
same,Lateral position,mice [7]; [12],2.5 ± 0.17 min
same,"Duration of sleep, % effect",mice [7]; 1 mg/kg,96.3%
same,"Lateral position, % effect",mice [7]; 1 mg/kg,104.2%
same,Lateral position,mice [7]; 10 mg/kg i.p. + hexobarbital 100 mg/kg,2.4 ± 0.16 min
same,Duration of sleep,"mice [7]; 10 mg/kg i.p. + hexobarbital 100 mg/kg, P < 0.01",67.2 ± 4.3 min
same,"Duration of sleep, % effect",mice [7]; 10 mg/kg,145.1%
same,"Lateral position, % effect",mice [7]; 10 mg/kg,100%
same,Lateral position,mice [7]; 25 mg/kg i.p. + hexobarbital 100 mg/kg,2.5 ± 0.2 min
same,Duration of sleep,"mice [7]; 25 mg/kg i.p. + hexobarbital 100 mg/kg, P < 0.001",60.6 ± 1.9 min
same,"Duration of sleep, % effect",mice [7]; 25 mg/kg,130.9%
same,"Lateral position, % effect",mice [7]; 25 mg/kg,104.2%
same,Lateral position,mice [7]; 50 mg/kg i.p. + hexobarbital 100 mg/kg,2.3 ± 0.15 min
same,Duration of sleep,"mice [7]; 50 mg/kg i.p. + hexobarbital 100 mg/kg, P < 0.001",70.7 ± 3.1 min
same,increase of sleep duration,"mice [7]; 50 mg/kg, hexobarbital",52.7%
same,"Duration of sleep, % effect",mice [7]; 50 mg/kg,152.7%
same,"Lateral position, % effect",mice [7]; 50 mg/kg,95.8%
same,Lateral position,mice [7]; 100 mg/kg i.p. + hexobarbital 100 mg/kg,2.4 ± 0.22 min
same,Duration of sleep,"mice [7]; 100 mg/kg i.p. + hexobarbital 100 mg/kg, P < 0.001",93.7 ± 4.3 min
same,increase of sleep duration over control group (maximum effect),"mice [7]; 100 mg/kg, hexobarbital",102.4%
same,"Duration of sleep, % effect",mice [7]; 100 mg/kg,202.4%
same,"Lateral position, % effect",mice [7]; 100 mg/kg,100%
same,Lateral position,mice [7]; 150 mg/kg i.p. + hexobarbital 100 mg/kg,2.5 ± 0.34 min
same,Duration of sleep,"mice [7]; 150 mg/kg i.p. + hexobarbital 100 mg/kg, P < 0.001",86.4 ± 4 min
same,"Duration of sleep, % effect",mice [7]; 150 mg/kg,186.6%
same,"Lateral position, % effect",mice [7]; 150 mg/kg,104.2%
same,change in effect on raising the dose,mice [7]; above 100 mg/kg,not noticeable change in the effect
same,effect on the lateral position,mice [7]; hexobarbital,no effect on the lateral position
same,properties compared with the other salts,central nervous system,best properties
same,Average lifespan,mice [8]; 10 mg/kg + Na-nitrite 400 mg/kg,777 ± 30.1 s
same,"Lifespan, % effect",mice [8]; 10 mg/kg,98.3%
same,Average lifespan,mice [8]; 25 mg/kg + Na-nitrite 400 mg/kg,780 ± 30.3 s
same,"Lifespan, % effect",mice [8]; 25 mg/kg,98.7%
same,Average lifespan,mice [8]; 50 mg/kg + Na-nitrite 400 mg/kg,819 ± 41 s
same,"Lifespan, % effect",mice [8]; 50 mg/kg,103.6%
same,increase in effect (lifespan),mice [8]; 100 mg/kg,19.9%
same,Average lifespan,"mice [8]; 100 mg/kg + Na-nitrite 400 mg/kg, P < 0.01",948 ± 40.3 s
same,"Lifespan, % effect",mice [8]; 100 mg/kg,119.9%
same,activity in hemic hypoxia (in words),mice [8]; 10 to 100 mg/kg,little activity
same,LD10 (acute toxicity),mice [9],2234.3 ± 60.7 mg/kg
same,LD50,"[10]; intravenous, read-out: DL50 (the source's name)",1040 ± 13.5 mg/kg
same,MTD,"[10]; ip, read-out: maximum tolerance level",1500 mg/kg
same,"ataxia, myorelaxation, loss of movement coordination",mice [11],"did not induce any ataxia, myorelaxation or loss of movement coordination"
